Results reported in patent publication US11672775B2, “Treprostinil prodrugs” (United Therapeutics Corporation, priority 2016, dated 2023).

Target: T1, EP2 receptor (Homo sapiens, UniProt P43116)
T1 construct: expressed in transfected cells
Test: cAMP assay (HTRF cAMP HiRange Kit), agonist mode, Example 4
Type: cell-based
Conditions: Table 2; HEK293T cells; read-out: Receptor activity EC50, EP receptor
Protocol: Materials. […] Cyclic AMP assay kit: HTRF cAMP HiRange Kit (CisBio, Cat #62AM6PEC). Cyclic AMP (cAMP) Assay: cAMP assays were performed according to the manufacturer's protocol using CisBio's HTRF cAMP HiRange Kit. […] The reaction was terminated by sequentially adding D2-labeled cAMP and cryptate-labeled anti-cAMP antibody in lysis buffer. […] Data in graphs are represented in Mean±SD. Dose-dependent responses were fitted with sigmoidal dose-response curves allowing variable slopes using GraphPad Prism versions 4, 5 or 6 (Graphpad Prism).

T1 sequence (P43116 whole entry): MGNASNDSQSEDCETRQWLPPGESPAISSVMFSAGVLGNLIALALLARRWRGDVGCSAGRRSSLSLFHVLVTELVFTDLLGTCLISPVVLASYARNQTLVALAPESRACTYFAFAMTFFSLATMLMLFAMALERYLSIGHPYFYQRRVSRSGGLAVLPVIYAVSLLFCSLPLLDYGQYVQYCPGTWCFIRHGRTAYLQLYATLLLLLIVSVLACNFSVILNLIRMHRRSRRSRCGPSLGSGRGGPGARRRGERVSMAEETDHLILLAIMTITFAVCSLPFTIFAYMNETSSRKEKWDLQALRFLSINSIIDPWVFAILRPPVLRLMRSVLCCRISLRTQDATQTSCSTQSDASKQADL

SMILES: CCCCC[C@H](O)CC[C@@H]1[C@H]2Cc3cccc(OCC(=O)O)c3C[C@H]2C[C@H]1O [Treprostinil]
- EC50: 6.75 nM
